Measured values reported in PubChem BioAssay (NCI).
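Five concentrations, 48 hours, 96-well plates. GI50 = concentration required for 50% inhibition of growth. TGI denotes the concentration required for complete inhibition of growth.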

What was measured:
Test in all cases: growth of human tumour cells (NCI), 48 h
[1] = system: HCC-2998 colon
[2] = system: CCRF-CEM leukemia
[3] = system: UO-31 renal
[4] = system: SNB-75 CNS
[5] = system: A549 NSCLC
[6] = system: SK-MEL-28 melanoma
[7] = system: NCI-H522 lung
[8] = system: UACC-62 melanoma
[9] = system: OVCAR-5 ovarian
[10] = system: KM12 colon

## CN(C)C(=O)O[C@H]1CN[C@H](C#Cc2cc3ncnc(Nc4ccc(OCc5cccc(F)c5)c(Cl)c4)c3s2)C1
[1]
  GI50: 11.3 µM
  TGI: > 25 µM
[2]
  GI50: 3.17 µM
  TGI: > 25 µM
[3]
  GI50: 4.04 µM
  TGI: > 23.9 µM
[4]
  GI50: 9.66 µM
  TGI: > 25 µM
[5]
  GI50: 6.12 µM
  TGI: > 25 µM
[6]
  GI50: > 25 µM
  TGI: > 25 µM
[7]
  GI50: 0.977 µM
  TGI: > 12.7 µM
[8]
  GI50: > 25 µM
  TGI: > 25 µM
[9]
  GI50: > 25 µM
  TGI: > 25 µM
[10]
  GI50: 7.37 µM
  TGI: > 25 µM

## c1c[nH]c(CN2CCOCC2)n1
[2]
  TGI: > 100 µM
[3]
  TGI: > 100 µM
[4]
  TGI: > 100 µM
[5]
  TGI: > 100 µM
[6]
  TGI: > 100 µM
[7]
  TGI: > 100 µM
[8]
  TGI: > 100 µM
[9]
  TGI: > 100 µM
[10]
  TGI: > 100 µM

## COc1ccc(C(=O)NCCN(C)C)c2nc3ccccc3nc12
[1]
  TGI: 26.3 µM
[3]
  TGI: > 52 µM
[4]
  TGI: 78 µM
[5]
  TGI: > 100 µM
[6]
  TGI: 16.8 µM
[7]
  TGI: > 100 µM
[8]
  TGI: 17.8 µM
[9]
  TGI: 16 µM
[10]
  TGI: 32.4 µM

## O=c1c2cc(Br)ccc2nc(CCl)n1-c1ccc(O)c([N+](=O)[O-])c1
[1]
  TGI: 34.1 µM
[2]
  TGI: 52.9 µM
[3]
  TGI: 29.9 µM
[4]
  TGI: 44 µM
[5]
  TGI: 52.3 µM
[6]
  TGI: 32.3 µM
[7]
  TGI: 35.7 µM
[8]
  TGI: 72.5 µM
[9]
  TGI: > 100 µM
[10]
  TGI: 39.1 µM

## O=C(Nc1ccc(Cl)c(Cl)c1)NS(=O)(=O)c1cnccc1Oc1ccc(F)cc1
[1]
  GI50: 4.43 µM
  TGI: 38.1 µM
[2]
  GI50: 2.47 µM
  TGI: 7.55 µM
[3]
  GI50: 2.62 µM
  TGI: 9.51 µM
[4]
  GI50: 3.85 µM
  TGI: > 100 µM
[5]
  GI50: 9.92 µM
  TGI: 52 µM
[7]
  GI50: 2.8 µM
  TGI: 10.4 µM
[8]
  GI50: 4.16 µM
  TGI: > 100 µM
[9]
  GI50: 6.28 µM
  TGI: 95.2 µM
[10]
  GI50: 3.75 µM
  TGI: 16.7 µM

## Cc1ccc(-c2nc3nc(-c4ccc(F)cc4)nc(N4CCCNCC4)c3o2)cc1
[1]
  GI50: 1.68 µM
  TGI: 3.37 µM
[2]
  GI50: 0.293 µM
  TGI: 1.04 µM
[3]
  GI50: 1.44 µM
  TGI: 2.79 µM
[4]
  GI50: 1.06 µM
  TGI: 2.24 µM
[6]
  GI50: 1.79 µM
  TGI: 3.23 µM
[7]
  GI50: 1.65 µM
  TGI: 3.51 µM
[8]
  GI50: 1.83 µM
  TGI: 3.47 µM
[9]
  GI50: 1.65 µM
  TGI: 3 µM
[10]
  GI50: 1.79 µM
  TGI: 3.42 µM

## CN(C)CCNC(=O)Cn1ccc(=O)c2c([N+](=O)[O-])cccc21
[1]
  TGI: > 100 µM
[2]
  TGI: > 100 µM
[3]
  TGI: > 100 µM
[4]
  TGI: > 100 µM
[5]
  TGI: > 100 µM
[6]
  TGI: > 100 µM
[7]
  TGI: > 100 µM
[8]
  TGI: > 100 µM
[9]
  TGI: > 100 µM
[10]
  TGI: > 100 µM

## Cn1cc(C2=C(c3cn(C4CCN(Cc5ccccn5)CC4)c4ccccc34)C(=O)NC2=O)c2ccccc21
[1]
  GI50: > 100 µM
  TGI: > 100 µM
[2]
  GI50: 3.75 µM
  TGI: > 100 µM
[4]
  GI50: 0.358 µM
  TGI: 9.74 µM
[5]
  GI50: 4.92 µM
  TGI: > 100 µM
[6]
  GI50: 6.07 µM
  TGI: > 100 µM
[7]
  GI50: 4.19 µM
  TGI: > 100 µM
[8]
  GI50: 5.12 µM
  TGI: > 100 µM
[9]
  GI50: > 100 µM
  TGI: > 100 µM
[10]
  GI50: 3.85 µM
  TGI: > 100 µM

## CCOC(=O)C1SC(=Nc2ccc(Cl)cc2)N=C1C (stereo not given)
[1]
  TGI: 31.5 µM
[3]
  TGI: 33.7 µM
[4]
  TGI: 44.7 µM
[5]
  TGI: 38.1 µM
[6]
  TGI: 40.9 µM
[7]
  TGI: 33 µM
[9]
  TGI: 39.3 µM
[10]
  TGI: 36.1 µM

## O=[N+]([O-])c1ccc(Sc2c3ccccc3nc3cc(Cl)ccc23)cc1
[2]
  TGI: > 100 µM
[3]
  GI50: > 100 µM
  TGI: > 100 µM
[4]
  TGI: > 100 µM
[5]
  GI50: > 100 µM
  TGI: > 100 µM
[6]
  GI50: > 100 µM
  TGI: > 100 µM
[7]
  GI50: > 100 µM
  TGI: > 100 µM
[8]
  GI50: > 100 µM
  TGI: > 100 µM
[9]
  GI50: > 100 µM
  TGI: > 100 µM
[10]
  GI50: > 100 µM
  TGI: > 100 µM

## C[N+](C)(C)CC1CCCCC1O (stereo not given)
[1]
  TGI: > 100 µM
[2]
  TGI: > 100 µM
[3]
  TGI: > 100 µM
[4]
  TGI: > 100 µM
[6]
  TGI: > 100 µM
[7]
  TGI: > 100 µM
[8]
  TGI: > 100 µM
[9]
  TGI: > 100 µM

## CCOC(=O)NC(=O)c1cn(CCN2CCN(C(=O)CCCCCCCCCCC(=O)N3CCN(CCn4cc(C(=O)NC(=O)OCC)c(=O)[nH]c4=O)CC3)CC2)c(=O)[nH]c1=O
[1]
  TGI: > 100 µM
[2]
  TGI: > 100 µM
[3]
  TGI: > 100 µM
[4]
  TGI: > 100 µM
[5]
  TGI: > 100 µM
[6]
  TGI: > 100 µM
[7]
  TGI: > 100 µM
[9]
  TGI: > 100 µM
[10]
  TGI: > 100 µM

## CSc1nnc(COc2ccc(Cl)cc2)o1
[3]
  TGI: > 100 µM
[4]
  TGI: > 100 µM
[5]
  TGI: > 100 µM
[6]
  TGI: > 100 µM
[7]
  TGI: > 100 µM
[8]
  TGI: > 100 µM
[9]
  TGI: > 100 µM
[10]
  TGI: > 100 µM

## Nc1ncnc2c1ncn2CC(O)CO (stereo not given)
[1]
  TGI: > 100 µM
[2]
  TGI: > 100 µM
[3]
  TGI: > 100 µM
[4]
  TGI: > 100 µM
[5]
  TGI: > 100 µM
[6]
  TGI: > 100 µM
[7]
  TGI: > 100 µM
[8]
  TGI: > 100 µM
[10]
  TGI: > 100 µM

## COc1cnc2c(c1)C(=O)c1c-2n(CCCN2CCN(C)CC2)c(=O)c2cc([N+](=O)[O-])ccc12
[1]
  GI50: 14.6 µM
  TGI: 27.7 µM
[2]
  GI50: 0.0683 µM
  TGI: 0.834 µM
[4]
  GI50: 1.55 µM
  TGI: 2.95 µM
[5]
  GI50: 0.128 µM
  TGI: 0.337 µM
[7]
  GI50: 0.479 µM
  TGI: 2.39 µM
[9]
  GI50: 22.1 µM
  TGI: 46.5 µM
[10]
  GI50: 2.11 µM
  TGI: 7.8 µM

## O=c1cc(/C=C/c2ccccc2)[nH]c2cc3c(cc12)OCO3
[1]
  TGI: 7.47 µM
[3]
  TGI: 20.9 µM
[4]
  TGI: 40.2 µM
[5]
  TGI: 21.4 µM
[6]
  TGI: 34.9 µM
[8]
  TGI: 10.1 µM
[9]
  TGI: 14.2 µM
[10]
  TGI: 17.7 µM

## C=C(C)C1C/C=C(/C)CCCC2(CCC3=C(CC(C(=C)C)C/C=C(/C)CCC3)O2)C(=O)C1 (stereo not given)
[1]
  TGI: > 100 µM
[2]
  TGI: > 100 µM
[3]
  TGI: > 100 µM
[4]
  TGI: > 100 µM
[5]
  TGI: > 100 µM
[6]
  TGI: > 100 µM
[7]
  TGI: > 100 µM
[8]
  TGI: > 100 µM
[10]
  TGI: > 100 µM

## O=C(O)[C@H](c1ccccc1)[C@@H](C(=O)O)c1ccccc1
[1]
  TGI: > 100 µM
[3]
  TGI: > 100 µM
[4]
  TGI: > 100 µM
[5]
  TGI: > 100 µM
[6]
  TGI: > 100 µM
[7]
  TGI: > 100 µM
[8]
  TGI: > 100 µM
[9]
  TGI: > 100 µM
[10]
  TGI: > 100 µM
